Reference: ChEMBL document CHEMBL1138966 (Bioorg Med Chem Lett, 2006)
pEC50, pIC50: −log10 of the molar value. Converted amounts (≈) assume the structure as drawn.

Legend:
[1] = system: Human immunodeficiency virus 1; assay: Antiviral activity against HIV1 3B in MT4 cells; type: functional, organism-based; conditions: Human immunodeficiency virus 1, 3B
MT4 = assay: Cytotoxicity against MT4 cells; type: functional; conditions: Homo sapiens
[2] = biological target: Human immunodeficiency virus type 1 integrase (Human immunodeficiency virus 1, UniProt Q7ZJM1); assay: Inhibition of strand transfer activity of HIV integrase
Chain of Human immunodeficiency virus type 1 integrase (Q7ZJM1 whole entry): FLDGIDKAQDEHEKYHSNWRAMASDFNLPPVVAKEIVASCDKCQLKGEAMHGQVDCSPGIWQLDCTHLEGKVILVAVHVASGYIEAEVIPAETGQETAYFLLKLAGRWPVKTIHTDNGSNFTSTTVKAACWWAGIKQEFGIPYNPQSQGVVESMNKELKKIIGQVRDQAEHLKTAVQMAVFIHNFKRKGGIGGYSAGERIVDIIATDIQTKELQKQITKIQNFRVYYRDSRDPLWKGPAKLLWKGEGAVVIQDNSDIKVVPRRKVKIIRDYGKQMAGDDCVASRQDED

[3] = system: Human immunodeficiency virus 1; assay: Antiviral activity against HIV1 3B in MT2 cells; type: functional, organism-based; conditions: Human immunodeficiency virus 1, 3B
physchem = conditions: buffer, pH 7.3
[4] = system: Human immunodeficiency virus 1; assay: Antiviral activity against HIV1 3B assessed as protein binding effect in MT2 cells; type: functional, organism-based; conditions: Human immunodeficiency virus 1, 3B
[5] = buffer, pH 7.3

Row | solubility [5] | Compound | pEC50 [1] | CC50 (MT4) | pIC50 [2] | pEC50 [3] | solubility (physchem) | pEC50 [4] | pIC50 [1]
1 | – | COc1c2c(c(O)c3ncccc13)C(=O)N(Cc1ccc(F)cc1)C2 | 7.05 | 5100 nM | 7.30 | – | – | – | –
2 | – | O=C(NCc1ccc(F)cc1)c1ccc2cccnc2c1O | < 5.00 | – | 5.70 | – | – | – | –
3 | – | O=C1c2c(c(C(=O)N3CCOCC3)c3cccnc3c2O)CN1Cc1ccc(F)cc1 | – | 4000 nM | 7.44 | 8.47 | 97 µM (≈ 40.9 µg/mL) | 7.27 | –
4 | – | CN(C)C(=O)Oc1c2c(c(O)c3ncccc13)C(=O)N(Cc1ccc(F)cc1)C2 | 8.52 | 1500 nM | 6.12 | – | – | – | –
5 | – | O=C(NCc1ccccn1)c1c2c(c(O)c3ncccc13)C(=O)N(Cc1ccc(F)cc1)C2 | – | 1600 nM | 6.72 | 8.01 | 36 µM (≈ 15.9 µg/mL) | 7.03 | –
6 | – | CCOC(=O)c1cccc(-c2c3c(c(O)c4ncccc24)C(=O)N(Cc2ccc(F)cc2)C3)c1 | 6.47 | 1000 nM | 5.68 | – | – | – | –
7 | – | O=C1c2c(cc3cccnc3c2O)CN1Cc1ccc(F)cc1 | – | – | 7.15 | – | – | – | 7.00
8 | – | CN(C)C(=O)Oc1c2c(c(O)c3ncccc13)C(=O)N(Cc1ccc(F)cc1)C2=O | – | 22000 nM | 5.62 | – | 2.5 µM (≈ 1.02 µg/mL) | – | 5.93
9 | – | COc1c2c(c(O)c3ncccc13)C(=O)N(Cc1ccc(F)cc1)C2=O | 5.12 | 19000 nM | 7.10 | – | < 1.4 µM | – | –
10 | – | CCOc1ccc(-c2c3c(c(O)c4ncccc24)C(=O)N(Cc2ccc(F)cc2)C3)cc1 | 6.11 | 1000 nM | 5.92 | – | – | – | –
11 | – | CCOC(=O)c1ccccc1-c1c2c(c(O)c3ncccc13)C(=O)N(Cc1ccc(F)cc1)C2 | 7.15 | 400 nM | 6.46 | – | – | – | –
12 | – | O=C1c2c(c(-c3c(F)cccc3F)c3cccnc3c2O)CN1Cc1ccc(F)cc1 | 7.96 | 300 nM | 6.47 | – | – | – | –
13 | 7.2 µM (≈ 3.1 µg/mL) | O=C(NCc1ccc(F)cc1)c1nc(N2CCCCS2(=O)=O)c2cccnc2c1O | – | 1500 nM | 7.30 | 8.42 | – | 7.06 | –
